Experimental findings from ChEMBL document CHEMBL1150131, “New cytotoxic bis 5-alkylresorcinol derivatives from the leaves of Oncostemon bojerianum from the Madagascar rainforest” (J Nat Prod, 2002) are described below.

In brackets after ≈: the same amount, converted by molar mass.

The subject of the experiment is A2780. Description: Cytotoxicity against human A2780 cells. It is filed as functional, cell-based.
As a reminder, the IC50 is the concentration that inhibits the measured activity by half. The low end stands for greater potency in that assay, the high end for weaker potency in that assay. Regarding `CC(=O)Oc1cc(O)cc(CCCCCCC/C=C\CCCCCCCc2cc(O)cc(OC(C)=O)c2)c1` [ONCOSTEMONOL A], half-maximal inhibition (IC50) was put at 9.4 µg/mL (≈ 17.9 µM).

In turn, `CC(=O)Oc1cc(O)cc(CCCCCCCCCCCCCCCCc2cc(O)cc(OC(C)=O)c2)c1` [ONCOSTEMONOL F] yielded an IC50 of 9.5 µg/mL (≈ 18 µM). For `Oc1cc(O)cc(CCCCCCC/C=C\CCCCCCCCCc2cc(O)cc(O)c2)c1` [ONCOSTEMONOL H] the value was 9.4 µg/mL (≈ 20.1 µM). For `CC(=O)Oc1cc(O)cc(CCCCCCC/C=C\CCCCCCCc2cc(O)cc(O)c2)c1` [ONCOSTEMONOL B] the value was 10.2 µg/mL (≈ 21.1 µM); for `Oc1cc(O)cc(CCCCC/C=C\CCCCCCCc2cc(O)cc(O)c2)c1`, 9.8 µg/mL (≈ 23.8 µM). For the compound `Oc1cc(O)cc(CCCCCCCCC/C=C\CCCCCCCCCc2cc(O)cc(O)c2)c1` [ONCOSTEMONOL G], half-maximal inhibition (IC50) was put at 10.2 µg/mL (≈ 20.5 µM). For `COc1cc(O)cc(CCCCCCC/C=C\CCCCCCCc2cc(O)cc(OC)c2)c1` [ONCOSTEMONOL C] the value was 9.8 µg/mL (≈ 20.9 µM). For `COc1cc(O)cc(CCCCCCC/C=C\CCCCCCCc2cc(O)cc(O)c2)c1` [ONCOSTEMONOL D], inhibition was half-maximal at 10 µg/mL (≈ 22 µM) (IC50). Then `COc1cc(O)cc(CCCCCCC/C=C\CCCCCCCc2cc(OC)cc(OC)c2)c1` [ONCOSTEMONOL E], with 9.8 µg/mL (≈ 20.3 µM); and `Oc1cc(O)cc(CCCCCCC/C=C\CCCCCCCc2cc(O)cc(O)c2)c1`, with 10.2 µg/mL (≈ 23.1 µM).
